How the values were obtained:
vagal sensory neurons = assay: In vivo calcium imaging of vagal sensory ganglia after microgavage; set-up: species or system zebrafish
Procedure: For delivering bacterial or chemicals specifically to the intestine, the established microgavage technique (Cocchiaro and Rawls, 2013) was adopted. Zebrafish were anesthetized with 1 mg/mL α-Bungarotoxin (α-BTX) and the gavage procedure was performed as previously described using microinjection station (Cocchiaro and Rawls, 2013). For bacteria gavage experiments, 1 ml of overnight bacterial culture was harvested, pelleted, washed with PBS and resuspended in 100 ul PBS.˜8 nl was then delivered into the zebrafish intestine using microgavage. The gavaged zebrafish was then transferred into egg water and mounted in 1% LMA for imaging. For chemical gavage experiments, ˜8 nl of AITC (100 mM), indole (1 mM) and IAld (1 mM) was gavaged into the intestine.
Tg(neurod1:Gcamp6f); Tg(neurod1:TagRFP) zebrafish were used to record vagal sensory ganglia calcium activity in vivo. Zebrafish were anesthetized with 1 mg/mL α-Bungarotoxin (α-BTX) and gavaged with chemical compounds or bacteria as described (Naumann et al., 2016). Zebrafish larvae were mounted in 1% LMA and imaged under a Zeiss 780 upright confocal microscope. Z-stack images of the entire vagal ganglia were collected as serial images at 10 mins/frame and processed in FIJI. Individual vagal sensory neurons were identified and the Gcamp6f to TagRFP fluorescence ratios of individual vagal sensory neurons were calculated.

human TRPA1 = human TRPA1 (Homo sapiens, UniProt O75762); assay: Ca2+ influx (Calcium 6 fluorescence) in human TRPA1 expressing HEK-293T cells; assay type: cell-based
Procedure: HEK-293T cells were cultured in DMEM (Thermofisher Scientific, Waltham, Mass.) and supplemented with 10% fetal bovine serum (FBS) (Thermofisher Scientific), penicillin (100 units/mL) and streptomycin (0.1 mg/mL). Cells were plated on 100 mm tissue culture plates coated with poly-D-lysine (Sigma Aldrich, Saint Louis, Mo.) and grown to ˜60% confluence. The cells were transiently transfected for 16-24 hours with either human or mouse orthologs of TRPA1 using Fugene 6 transfection reagents and Opti-MEM (Thermofisher Scientific) according to the manufacturer's protocol. Subsequently, cells were trypsinized, re-suspended and re-plated onto poly-D-lysine coated 96-well plates (Krystal black walled plates, Genesee Scientific) at 5×10^5 cells/mL (100 μL/well) and allowed to grow for another 16-20 hrs prior to the experiments. Cells were maintained as monolayers in a 5% CO2 incubator at 37° C.
Measurements of changes in intracellular Ca^2+ concentrations ([Ca^2+]i) were performed as described previously (Caceres et al., 2017). In brief, cells in 96-well plates were loaded with Calcium 6, a no-wash fluorescent indicator, for 1.5 hrs (Molecular Devices, San Jose, Calif.) and then transferred to a FlexStation III benchtop scanning fluorometer chamber (Molecular Devices). Fluorescence measurements in the FlexStation were performed at 37° C. (Ex:485 nm, Em: 525 nm at every 1.8 s). After recording baseline fluorescence, agonists (indole, IAld, cinnamaldehyde) were added and fluorescence was monitored for a total of 60 s. […] The change in fluorescence was measured as Fmax-F0, where Fmax is the maximum fluorescence and F0 is the baseline fluorescence measured in each well.

mouse duodenum = assay: Amperometric measurement of 5-HT secretion, mouse small intestine; conditions: 10 mM Indole
Description: These experiments using C57BL/6J mice were approved by the Flinders University Animal Welfare Committee (number 965-19) and human ileum tissue was collected from resected small and large intestine from patients that gave written informed consent under the approval of the Southern Adelaide Clinical Human Research Ethics Committee (number 50.07) as previous (Sun et al., 2019a). Mice were euthanized at 8 to 12 weeks by isoflurane overdose followed by cervical dislocation. The duodenum was removed and placed in Krebs solution oxygenated with 95% O2, 5% CO2. A midline incision was made along the duodenum to create a flat sheet, the section was pinned with the mucosal side up in an organ bath lined with Sylgard and containing oxygenated Krebs solution. Serotonin release was measured using amperometry. A carbon-fibre electrode (5-μm diameter, ProCFE; Dagan Corporation, Minneapolis, Minn.), was lowered above the mucosa and 400 mV potential was applied to the electrode causing oxidation of serotonin (Zelkas et al., 2015). […] The change in amplitude due to serotonin oxidation was recorded using an EPC-10 amplifier and Pulse software (HEKA Electronic, Lambrecht/Pfalz, Germany), and samples at 10 kHz and low-pass filtered at 1 kHz. Data was assessed as peak current during each treatment. Data was analyzed comparing all groups using one-way ANOVA with Tukey's post-hoc test. […]

Sequence of human TRPA1 (O75762 whole entry): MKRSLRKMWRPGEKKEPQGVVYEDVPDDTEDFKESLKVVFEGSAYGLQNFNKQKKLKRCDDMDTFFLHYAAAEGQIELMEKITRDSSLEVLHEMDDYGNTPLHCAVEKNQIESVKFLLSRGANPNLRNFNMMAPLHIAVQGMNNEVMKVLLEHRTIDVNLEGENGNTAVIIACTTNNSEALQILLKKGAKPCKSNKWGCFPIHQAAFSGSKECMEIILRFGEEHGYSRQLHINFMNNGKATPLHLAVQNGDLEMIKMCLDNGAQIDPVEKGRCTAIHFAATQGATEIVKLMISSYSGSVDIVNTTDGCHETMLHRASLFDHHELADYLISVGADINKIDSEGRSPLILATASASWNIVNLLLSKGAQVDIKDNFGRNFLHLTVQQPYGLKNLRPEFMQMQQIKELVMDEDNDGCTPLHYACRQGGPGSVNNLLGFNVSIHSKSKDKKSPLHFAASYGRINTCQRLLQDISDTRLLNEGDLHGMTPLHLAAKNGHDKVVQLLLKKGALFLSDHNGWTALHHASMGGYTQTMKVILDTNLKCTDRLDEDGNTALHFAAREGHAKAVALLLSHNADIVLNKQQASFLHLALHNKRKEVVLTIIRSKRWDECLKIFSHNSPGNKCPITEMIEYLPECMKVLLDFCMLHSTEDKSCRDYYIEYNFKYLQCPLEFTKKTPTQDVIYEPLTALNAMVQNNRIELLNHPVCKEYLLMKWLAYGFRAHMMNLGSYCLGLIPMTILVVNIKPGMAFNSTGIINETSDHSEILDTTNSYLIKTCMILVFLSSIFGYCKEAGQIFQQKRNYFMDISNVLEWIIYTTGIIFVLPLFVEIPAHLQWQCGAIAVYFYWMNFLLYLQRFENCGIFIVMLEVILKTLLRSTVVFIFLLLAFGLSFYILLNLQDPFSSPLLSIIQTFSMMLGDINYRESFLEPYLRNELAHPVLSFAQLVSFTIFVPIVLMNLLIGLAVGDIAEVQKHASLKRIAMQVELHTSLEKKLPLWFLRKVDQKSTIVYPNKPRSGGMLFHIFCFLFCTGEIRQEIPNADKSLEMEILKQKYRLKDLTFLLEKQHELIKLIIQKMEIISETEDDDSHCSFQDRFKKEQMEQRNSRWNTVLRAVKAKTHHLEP

c1ccc2[nH]ccc2c1 [Indole]
Vagal sensory neuron activation in larvae lacking EECs (vagal sensory neurons; EEC-ablated zebrafish, enteric indole): abrogated | Gcamp6f fluorescence in a subset of vagal sensory neurons (vagal sensory neurons; WT, enteric microgavage ~8 nl, AITC 100 mM, indole 1 mM, IAld 1 mM): increased | Activation of human TRPA1 receptor transfected into HEK cells (human TRPA1): activated | EC50 (human TRPA1): 88.7 µM | TRPA1 agonist efficacy (human TRPA1; efficiency comparable to cinnamaldehyde (CAD)): full TRPA1 agonist activity | 5-HT secretion in mouse duodenum (mouse duodenum): significant increase
